Laboratory results taken from patent US6677310B1, “Ring-expanded nucleosides and nucleotides” (Nabi, priority 1999, dated 2004).

Key:
COLO 205 = test: SRB anti-cancer assay, Colon Cancer; assay type: cell-based, human; details: COLO 205 (Colon Cancer), 48 h
2.2.15 cells = test: Toxicity in confluent 2.2.15 cells (neutral red dye uptake); assay type: cell-based, human; details: confluent 2.2.15 cells, 9 days, neutral red dye uptake; read-out: CC50
Description: Anti-HBV activity and the toxicity against confluent 2.2.15 cells were determined by the previously described procedure (Korba, B. E., et al. Antivir. Res., 19:55-70, 1992; Korba, B. E., et al. Antivir. Res., 15:217-228, 1991). Briefly, confluent cultures of HBV transfected 2.2.15 cells were maintained on either 96-well or 24-well flat-bottomed tissue culture plates in RPMI 1640 medium with 2% fetal bovine serum (FBS). The cells were treated with test compounds daily for nine consecutive days. […] Cellular toxicity against separate cultures of confluent 2.2.15 cells was measured after treatment with the compounds for nine days under identical culture conditions as those used for the antiviral assay (Korba, B. E., et al. Antivir. Res., 19:55-70, 1992). Uptake of neutral red dye by treated cells was compared with dye uptake by untreated control cells (Korba, B. E., et al. Antivir. Res., 19:55-70, 1992).

cytomegalovirus (CMV) = test: Antiviral test against CMV; assay type: cell-based
Description: (§1) These compounds were also tested for their effects on HIV (Weislow, O. , et al., J. Natl. Cancer Inst., 81:577-586, 1989), herpes simplex virus (HSV)-1, HSV-2, cytomegalovirus (CMV), Varicella Zoster virus (VZV) and Epstein-Barr virus (EBV) replication (National Institute of Allergy and Infectious Diseases (NIAID), NIH, Bethesda, Md.).

[1] = tested on: Varicella Zoster virus (VZV); test: Antiviral test against VZV; assay type: cell-based
Description: as §1

HCC-2998 = test: SRB anti-cancer assay, Colon Cancer; assay type: cell-based, human; details: HCC-2998 (Colon Cancer), 48 h
SNB-19 = test: SRB anti-cancer assay, CNS Cancer; assay type: cell-based, human; details: SNB-19 (CNS Cancer), 48 h
PC-3 = test: SRB anti-cancer assay, Prostate Cancer; assay type: cell-based, human; details: PC-3 (Prostate Cancer), 48 h
T-47D = test: SRB anti-cancer assay, Breast Cancer; assay type: cell-based, human; details: T-47D (Breast Cancer), 48 h
SF-295 = test: SRB anti-cancer assay, CNS Cancer; assay type: cell-based, human; details: SF-295 (CNS Cancer), 48 h
SK-MEL-28 = test: SRB anti-cancer assay, Melanoma; assay type: cell-based, human; details: SK-MEL-28 (Melanoma), 48 h
BT-549 = test: SRB anti-cancer assay, Breast Cancer; assay type: cell-based, human; details: BT-549 (Breast Cancer), 48 h
[2] = tested on: herpes simplex virus (HSV)-1; test: Antiviral test against HSV-1; assay type: cell-based
Description: as §1

[3] = tested on: panel of cancer cell lines; test: In vitro anti-cancer assay, panel of cancer cell lines (sulforhodamine B); assay type: cell-based, human; details: leukemia, non-small cell lung, colon, CNS, melanoma, ovarian, renal, prostate and breast cancer cell lines; read-out: GI50 values, range over the panel
MCF7 = test: SRB anti-cancer assay, Breast Cancer; assay type: cell-based, human; details: 48 h
SK-OV-3 = test: SRB anti-cancer assay, Ovarian Cancer; assay type: cell-based, human; details: SK-OV-3 (Ovarian Cancer), 48 h
NCI/ADR-RES = test: SRB anti-cancer assay, Breast Cancer; assay type: cell-based, human; details: 48 h
HS 578T = test: SRB anti-cancer assay, Breast Cancer; assay type: cell-based, human; details: HS 578T (Breast Cancer), 48 h
RPMI-8226 = test: SRB anti-cancer assay, Leukemia; assay type: cell-based, human; details: RPMI-8226 (Leukemia), 48 h
NCI-H23 = assay type: cell-based, human; details: NCI-H23 (Non-Small Cell Lung Cancer), 48 h
HCT-15 = test: SRB anti-cancer assay, Colon Cancer; assay type: cell-based, human; details: HCT-15 (Colon Cancer), 48 h
EKVX = assay type: cell-based, human; details: EKVX (Non-Small Cell Lung Cancer), 48 h
[4] = tested on: HBV ribonucleic acids (RNA); test: HBV RNA levels in 2.2.15 cells (blot hybridization); assay type: cell-based, Hepatitis B virus; details: 10 μM, day 9, 2.2.15 cells
Description: Anti-HBV activity and the toxicity against confluent 2.2.15 cells were determined by the previously described procedure (Korba, B. E., et al. Antivir. Res., 19:55-70, 1992; Korba, B. E., et al. Antivir. Res., 15:217-228, 1991). Briefly, confluent cultures of HBV transfected 2.2.15 cells were maintained on either 96-well or 24-well flat-bottomed tissue culture plates in RPMI 1640 medium with 2% fetal bovine serum (FBS). The cells were treated with test compounds daily for nine consecutive days. The culture media were harvested on day 9 to quantify the amount of virion DNA. On day 10, the cells were lysed to quantify the amount of intracellular HBV replicative intermediates (RI). The quantification of virion DNA and the HBV RI were done by blot hybridization methods (Korba, B. E., et al. Antivir. Res., 19:55-70, 1992; Korba, B. E., et al. Antivir. Res., 15:217-228, 1991). Cellular toxicity against separate cultures of confluent 2.2.15 cells was measured after treatment with the compounds for nine days under identical culture conditions as those used for the antiviral assay (Korba, B. E., et al. Antivir. Res., 19:55-70, 1992). Uptake of neutral red dye by treated cells was compared with dye uptake by untreated control cells (Korba, B. E., et al. Antivir. Res., 19:55-70, 1992).
These compounds were evaluated for their ability to inhibit viral RNA synthesis in 2.2.15 cells. Since HBV uses host cellular RNA polymerase II during the transcription of viral RNA from the covalently closed circular HBV DNA during its replication, any effect on the synthesis of viral RNA by these compounds would mean interference with the cellular RNA polymerase which could lead to unacceptable cellular toxicity.

[5] = read-out: LC50 (the source's name)

## N=c1nc(N)c2ncn([C@@H]3O[C@H](CO)[C@@H](O)[C@H]3O)c2c(N)n1 [Compound 14-2, 4,8-Diamino-6H-6-imino-1-β-D-ribofuranosylimidazo[4,5-e][1,3]diazepine]
COLO 205
  GI50: 21 µM
  LC50: 63.4 µM
  TGI: 36.5 µM
2.2.15 cells
  CC50: 501 µM
Cytomegalovirus (CMV)
  antiviral activity against CMV: no antiviral activity
[1]
  antiviral activity against VZV: no antiviral activity
HCC-2998
  GI50: 16.4 µM
  TGI: 30.8 µM
HCC-2998; [5]
  CC50: 58 µM
SNB-19
  GI50: 17.1 µM
  TGI: 51.5 µM
SNB-19; [5]
  CC50: > 100 µM
PC-3
  GI50: 16.6 µM
  TGI: 44.5 µM
PC-3; [5]
  CC50: > 100 µM
T-47D
  GI50: 13.3 µM
  TGI: 39.6 µM
T-47D; [5]
  CC50: > 100 µM
SF-295
  GI50: 24.7 µM
  TGI: 63.7 µM
SF-295; [5]
  CC50: > 100 µM
SK-MEL-28
  GI50: 25.4 µM
  LC50: > 100 µM
  TGI: 81.1 µM
BT-549
  GI50: 15.6 µM
  TGI: 32.2 µM
BT-549; [5]
  CC50: 66.4 µM
[2]
  antiviral activity against HSV-1: no antiviral activity
[3]
  GI50: 1 to 10 µM
MCF7
  GI50: 5.81 µM
  TGI: 22.3 µM
MCF7; [5]
  CC50: 63.4 µM
SK-OV-3
  GI50: 51.8 µM
  TGI: >100 µM
SK-OV-3; [5]
  CC50: > 100 µM
NCI/ADR-RES
  GI50: 23.4 µM
  TGI: 67.6 µM
NCI/ADR-RES; [5]
  CC50: > 100 µM
HS 578T
  GI50: 7.58 µM
  TGI: 31.6 µM
HS 578T; [5]
  CC50: > 100 µM
RPMI-8226
  GI50: 32.8 µM
  TGI: >100 µM
RPMI-8226; [5]
  CC50: > 100 µM
NCI-H23
  GI50: 16.8 µM
  TGI: 33.4 µM
NCI-H23; [5]
  CC50: 66.2 µM
HCT-15
  GI50: 11.8 µM
  TGI: 27.4 µM
HCT-15; [5]
  CC50: 63.5 µM
EKVX
  GI50: 14.3 µM
  TGI: 27.3 µM
EKVX; [5]
  CC50: 52.3 µM
[4]
  2.1 Kb RNA, percentage of control: 96 ± 8%
  3.6 Kb RNA, percentage of control: 103 ± 9%
